Experimental data from ChEMBL document CHEMBL1136152, “Synthesis and antioxidant efficiency of a new amphiphilic spin-trap derived from PBN and lipoic acid” (Bioorg Med Chem Lett, 2003).

Experiments:
Type in all cases: functional
[1] = In vitro half-hemolysis time at the concentration of 500 uM
[2] = In vitro half-hemolysis time at the concentration of 100 uM
[3] = In vitro half-hemolysis time at the concentration of 200 uM
[4] = In vitro half-hemolysis time at the concentration of 50 uM
[5] = In vitro half-hemolysis time at the concentration of 500 uM with LAMPBN to LGT molar ratio = 1.33/0.67
[6] = In vitro half-hemolysis time at the concentration of 200 uM with LAMPBN to LGT molar ratio = 1/1
[7] = In vitro half-hemolysis time at the concentration of 500 uM with LAMPBN to LGT molar ratio = 0.67/1.33
[8] = In vitro half-hemolysis time at the concentration of 500 uM with LAMPBN to LGT molar ratio = 1/1
[9] = In vitro half-hemolysis time at the concentration of 100 uM with LAMPBN to LGT molar ratio = 1/1
[10] = In vitro half-hemolysis time at the concentration of 50 uM with LAMPBN to LGT molar ratio = 0.67/1.33
[11] = In vitro half-hemolysis time at the concentration of 50 uM with LAMPBN to LGT molar ratio = 1/1
[12] = In vitro half-hemolysis time at the concentration of 200 uM with LAMPBN to LGT molar ratio = 0.67/1.33
[13] = In vitro half-hemolysis time at the concentration of 100 uM with LAMPBN to LGT molar ratio = 1.33/0.67
[14] = In vitro half-hemolysis time at the concentration of 200 uM with LAMPBN to LGT molar ratio = 1.33/0.67
[15] = In vitro half-hemolysis time at the concentration of 100 uM with LAMPBN to LGT molar ratio = 0.67/1.33
[16] = In vitro half-hemolysis time at the concentration of 50 uM with LAMPBN to LGT molar ratio = 1.33/0.67

## CC(C)(COC(=O)NCCCNC(=O)CCCCC1CCSS1)/[N+]([O-])=C/c1ccc(CNC(=O)[C@H](O)[C@@H](O)[C@H](O[C@@H]2O[C@@H](CO)[C@H](O)[C@H](O)[C@@H]2O)[C@H](O)CO)cc1 (stereo partly specified)
[1]
  HT50: 167%
[2]
  HT50: 82.9%
[3]
  HT50: 135%
[4]
  HT50: 49%

## CC(C)(C)/[N+]([O-])=C/c1ccc(CNC(=O)[C@H](O)[C@@H](O)C(O[C@@H]2O[C@@H](CO)[C@H](O)[C@H](O)[C@@H]2O)[C@H](O)CO)cc1.O=C(CCCCC1CCSS1)NCC(=O)NC(CO)(CO)CO (stereo partly specified)
[5]
  HT50: 86.3%
[6]
  HT50: 53.7%
[7]
  HT50: 88.6%
[8]
  HT50: 86.5%
[9]
  HT50: 51.6%
[10]
  HT50: 56.6%
[11]
  HT50: 44.6%
[12]
  HT50: 62%
[13]
  HT50: 47.4%
[14]
  HT50: 49.8%
[15]
  HT50: 60.8%
[16]
  HT50: 41.5%
